Experiment [1] concerns C. acnes HL043PA2 compared to human keratinocytes. The experiment is classed as cell-based. Particulars: 8 h. On the procedure: In evaluating the clinical utility of each of the candidate dAMPs for C. acnes treatment, the Therapeutic Index was determined. The Therapeutic Index is defined as the ratio of concentration at which the dAMP is active against the prokaryotic C. acnes pathogen without inducing cytotoxic damage to the surrounding mammalian cells. The EC10 and EC50 doses, defined as the concentrations required to kill 10% and 50% respectively of human keratinocytes following 8 h incubation with each of the Riptide dAMPs, are tabulated and graphed in Table 2 and Figure 3, respectively. The larger the Therapeutic Index, the greater the specificity of the dAMP for destroying C. acnes cells.
(§1) Single colonies were inoculated in Reinforced Clostridium Medium (RCM) broth supplemented with sodium thioglycolate and incubated at 37 °C, with shaking at 200 rpm, for 2 or 3 days to reach logarithmic growth (OD600nm = 1.0). Each C. acnes (1 × 10^6 CFU per mL) was incubated with dAMP or clindamycin at two-fold serial dilutions (0.5–32 μg per mL) in RCM on a 96-well microplate for 48 h. Three replicas were included for each test article concentration. Bacterial growth was measured by optical density at 600 nm to determine the MIC for each dAMP applied.
(§2) Noninvasive and real-time monitoring of mammalian cytotoxicity to assess the potential skin toxicity of the dAMPs was evaluated using bioluminescent human immortalized keratinocytes (HaCaT, AddexBio, San Diego, CA, USA). The bioluminescent variant of HaCaT was constructed by transfection with a luciferase gene (RediFect Red-Fluc-Puromycin, Cat# CL596002). Keratinocytes (1 × 10^4 cells, 100 μL) were plated in 96-well black-walled plates. The candidate dAMPs were 2-fold serially diluted from 1024 µg/mL in growth medium supplemented with 150 µg/mL D-luciferin. Each concentration was performed in triplicate, with the final volume being 200 μL. Imaging was performed at select times (0, 15, and 30 min and 1, 3, 5, and 8 h) after the addition of the dAMP, and compared to concurrently run vehicle-control, using an IVIS Lumina imaging system (Caliper Life Sciences, Inc., Hopkinton, MA, USA). For imaging, the 96-well plate was positioned on the stage (12.5-cm field of view), with an open emission filter, binning of 4, and f-stop 1 and a 1-min exposure time. Data analysis was performed using the Living Image software program (version 4.3, Caliper Life Sciences, Inc.). The dAMP concentrations required to kill 10% and 50% of keratinocytes were determined using GraphPad Prism 7 (GraphPad Software, San Diego, CA, USA).

Experiment [2] has as its system bioluminescent human immortalized keratinocytes (HaCaT). As to the kind of experiment: Mammalian cytotoxicity, bioluminescent human keratinocytes. It is filed as cell-based. Particulars: 8 h. As for the experimental part:
as §2

Experiment [3] relates to C. acnes HL072PA1. It is filed as cell-based, Cutibacterium acnes. Particulars: HL072PA1, 48 h. On the procedure: (§3) The ten antibiotic resistant C. acnes clinical isolates were acquired from BEI resources with the two reference strains obtained from American Type Culture Collection (ATCC, Manassas, VA, USA). C. acnes is a relatively slow-growing, typically aerotolerant anaerobic so all in vitro C. acnes experiments were performed under anaerobic conditions.
as §1

The subject of experiment [4] is C. acnes HL013PA1. It is filed as cell-based, Cutibacterium acnes. Particulars: HL013PA1, 48 h. On the procedure:
as §3, §1

The test system of experiment [5] is C. acnes ATCC11827. It is filed as cell-based, Cutibacterium acnes. Particulars: ATCC11827, 48 h. As for the experimental part:
as §3, §1

The test system of experiment [6] is C. acnes HL045PA1. The experiment is classed as cell-based, Cutibacterium acnes. Particulars: HL045PA1, 48 h. As for the experimental part:
as §3, §1

Experiment [7] deals with C. acnes HL043PA2. It is filed as cell-based, Cutibacterium acnes. Particulars: HL043PA2, 48 h. As for the experimental part: as §3, §1
Experiment [8] deals with C. acnes HL056PA1. The experiment is classed as cell-based, Cutibacterium acnes. Particulars: HL056PA1, 48 h. On the procedure: as §3, §1
In experiment [9] the test system is C. acnes HL043PA1. The experiment is classed as cell-based, Cutibacterium acnes. Particulars: HL043PA1, 48 h. On the procedure: as §3, §1
In experiment [10] the test system is C. acnes HL082PA2. The experiment is classed as cell-based, Cutibacterium acnes. Particulars: HL082PA2, 48 h. On the procedure: as §3, §1
Experiment [11] relates to C. acnes HL038PA1. The experiment is classed as cell-based, Cutibacterium acnes. Particulars: HL038PA1, 48 h. As for the experimental part:
as §3, §1

Experiment [12] has as its system C. acnes ATCC6919. It is filed as cell-based, Cutibacterium acnes. Particulars: ATCC6919, 48 h. On the procedure:
as §3, §1

Experiment [13] deals with ten C. acnes clinical isolates and two C. acnes ATCC reference strains. It is filed as cell-based, Cutibacterium acnes. Particulars: for in vitro anti-bacterial activity against the C. acnes bacterial strains (in words): 0.5–32 μg/mL concentration range evaluated; for MIC values against all C. acnes isolates: ten clinical isolates and two ATCC reference strains, 48 h. On the procedure:
as §3, §1

Experiment [14] deals with C. acnes HL053PA1. The experiment is classed as cell-based, Cutibacterium acnes. Particulars: HL053PA1, 48 h. As for the experimental part:
as §3, §1

The subject of experiment [15] is C. acnes HL007PA1. The experiment is classed as cell-based, Cutibacterium acnes. Particulars: HL007PA1, 48 h. As for the experimental part:
as §3, §1

Values after ≈ are worked out from the molar mass of the structure shown. Square brackets hold non-standard residues; d marks the D form. Peptide text beside a SMILES is read from it. Orn = NCCC[C@H](N)C(=O)O

Turning to `C[C@H](NC(=O)[C@H](Cc1ccccc1)NC(=O)[C@H](C)NC(=O)[C@H](Cc1ccccc1)NC(=O)[C@H](CCCN)NC(=O)[C@H](C)NC(=O)[C@H](Cc1ccccc1)NC(=O)[C@H](CCCN)NC(=O)[C@H](CCCN)NC(=O)[C@H](C)NC(=O)[C@H](Cc1ccccc1)NC(=O)[C@H](CCCN)NC(=O)[C@H](CCCN)NC(=O)[C@H](Cc1ccccc1)NC(=O)[C@H](CCCN)NC(=O)[C@H](CCCN)NC(=O)[C@H](C)NC(=O)[C@H](Cc1ccccc1)NC(=O)[C@H](CCCN)NC(=O)[C@H](CCCN)NC(=O)[C@H](C)NC(=O)[C@@H](N)Cc1ccccc1)C(=O)N[C@@H](Cc1ccccc1)C(N)=O` [RP444] (H-FA[Orn][Orn]FA[Orn][Orn]F[Orn][Orn]FA[Orn][Orn]FA[Orn]FAFAF-NH2), the “Therapeutic Index (EC10 / MIC)” value in experiment [1] was found to be 1.63. In addition, in [1], the “Therapeutic Index (EC50 / MIC)” value was found to be 2.5. Further, the “EC50, concentration required to kill 50% of human keratinocytes” value (from here on “EC50 … to kill 50% of human keratinocytes”) in experiment [2] came out at 20 µg/mL. Moreover, the MIC in experiment [3] was determined as 8 µg/mL (≈ 3.02 µM); in experiment [4] it was 4 µg/mL (≈ 1.51 µM); in experiment [5], 8 µg/mL (≈ 3.02 µM); in experiment [6], 4 µg/mL (≈ 1.51 µM); in [7], 8 µg/mL (≈ 3.02 µM); in experiment [8], 4 µg/mL (≈ 1.51 µM). The MIC in experiment [9] is listed as 4 µg/mL (≈ 1.51 µM); in experiment [10], 2 µg/mL (≈ 0.755 µM); in [11], 4 µg/mL (≈ 1.51 µM); in experiment [12], 2 µg/mL (≈ 0.755 µM); in experiment [14], 4 µg/mL (≈ 1.51 µM); in experiment [15] it was 4 µg/mL (≈ 1.51 µM). For the same molecule, the “in vitro anti-bacterial activity against the C. acnes bacterial strains (in words)” value (shortened to “in vitro anti-bacterial activity”) in experiment [13] is “most active”. The “MIC values against all C. acnes isolates” value in experiment [13] was 2 to 8 µg/mL.

On to `CC[C@H](C)[C@H](NC(=O)[C@H](Cc1ccccc1)NC(=O)[C@H](CCCN)NC(=O)[C@H](CCCCN)NC(=O)[C@H](Cc1ccccc1)NC(=O)[C@H](CCCN)NC(=O)[C@H](CCCCN)NC(=O)[C@H](C)NC(=O)[C@H](Cc1ccccc1)NC(=O)[C@H](CCCCN)NC(=O)[C@H](CCCN)NC(=O)[C@@H](NC(=O)[C@@H](N)Cc1ccccc1)[C@@H](C)CC)C(=O)N[C@@H](CCCN)C(=O)N[C@@H](CCCCN)C(=O)N[C@@H](Cc1ccccc1)C(=O)N[C@@H](C)C(=O)N[C@@H](CCCCN)C(=O)N[C@@H](Cc1ccccc1)C(=O)N[C@@H](C)C(=O)N[C@@H](Cc1ccccc1)C(=O)N[C@@H](C)C(=O)N[C@@H](Cc1ccccc1)C(N)=O` [RP551] (H-FI[Orn]KFAK[Orn]FK[Orn]FI[Orn]KFAKFAFAF-NH2), for which the “Therapeutic Index (EC10 / MIC)” value in experiment [1] amounted to 8.3. Also, the “Therapeutic Index (EC50 / MIC)” value in experiment [1] amounted to 17.2. The “EC50 … to kill 50% of human keratinocytes” value in experiment [2] is 34.3 µg/mL. The MIC in experiment [3] is 2 to 4 µg/mL; in experiment [4], 2 µg/mL (≈ 0.714 µM); in experiment [5] it was 2 to 4 µg/mL; in experiment [6], 2 µg/mL (≈ 0.714 µM); in [7] it was 2 µg/mL (≈ 0.714 µM); in experiment [8] it was 2 µg/mL (≈ 0.714 µM). Further, the MIC in experiment [9], in experiment [10], in experiment [11], in experiment [12], in [14] and in [15] was 2 µg/mL (≈ 0.714 µM) in each case. The “in vitro anti-bacterial activity” value in experiment [13] is “most active”. In addition, the “MIC values against all C. acnes isolates” value in experiment [13] is 2 to 8 µg/mL.

As to `CC[C@H](C)[C@H](NC(=O)[C@H](CCCCN)NC(=O)[C@H](CC(C)C)NC(=O)[C@H](CCCN)NC(=O)[C@H](CC(C)C)NC(=O)[C@H](CCCNC(=N)N)NC(=O)[C@H](C)NC(=O)[C@H](CCCNC(=N)N)NC(=O)[C@@H](NC(=O)[C@H](CCCN)NC(=O)[C@H](Cc1ccccc1)NC(=O)[C@H](CCCNC(=N)N)NC(=O)[C@H](C)NC(=O)[C@H](CCCCN)NC(=O)[C@@H](NC(=O)[C@H](CCCN)NC(=O)[C@@H](N)Cc1ccccc1)[C@@H](C)CC)C(C)C)C(N)=O` [RP553] (H-F[Orn]IKARF[Orn]VRARL[Orn]LKI-NH2), the “Therapeutic Index (EC50 / MIC)” value in [1] was determined as 16.8. Also, in experiment [2], the “EC50 … to kill 50% of human keratinocytes” value is 268 µg/mL. In addition, the MIC in experiment [3] is reported as 16 µg/mL (≈ 7.72 µM); in experiment [4], 8 µg/mL (≈ 3.86 µM); in experiment [5] it was 16 µg/mL (≈ 7.72 µM); in [6], 16 µg/mL (≈ 7.72 µM); in experiment [7], 16 µg/mL (≈ 7.72 µM); in experiment [8], 16 µg/mL (≈ 7.72 µM). Moreover, the MIC was 16 µg/mL (≈ 7.72 µM) in experiment [9]; 16 µg/mL (≈ 7.72 µM) in experiment [10]; 16 µg/mL (≈ 7.72 µM) in experiment [11]; 8 µg/mL (≈ 3.86 µM) in experiment [12]; 16 µg/mL (≈ 7.72 µM) in [14]; 16 µg/mL (≈ 7.72 µM) in [15]. In addition, the “in vitro anti-bacterial activity” value in experiment [13] is “modest anti-bacterial activity”.

With `CC[C@H](C)[C@H](NC(=O)[C@H](CCCN)NC(=O)[C@H](C)NC(=O)[C@H](CCCN)NC(=O)[C@H](CC(C)C)NC(=O)[C@H](CCCN)NC(=O)[C@@H](NC(=O)[C@H](CCCN)NC(=O)[C@@H](NC(=O)[C@H](CCCN)NC(=O)[C@H](C)NC(=O)[C@H](CCCN)NC(=O)[C@H](CC(C)C)NC(=O)[C@H](CCCN)NC(=O)[C@@H](N)Cc1ccccc1)[C@@H](C)CC)C(C)C)C(=O)N[C@@H](CCCN)C(=O)N[C@@H](CC(C)C)C(N)=O` [RP554] (H-F[Orn]L[Orn]A[Orn]I[Orn]V[Orn]L[Orn]A[Orn]I[Orn]L-NH2), the “Therapeutic Index (EC10 / MIC)” value in experiment [1] was 2.38. The “Therapeutic Index (EC50 / MIC)” value in experiment [1] is on record as 3.88. Moreover, in experiment [2], the “EC50 … to kill 50% of human keratinocytes” value came out at 31 µg/mL. In addition, the MIC in experiment [3] was 8 µg/mL (≈ 4.25 µM); in experiment [4], 2 to 4 µg/mL; in experiment [5] it was 8 µg/mL (≈ 4.25 µM); in [6], 4 µg/mL (≈ 2.12 µM); in experiment [7], 8 µg/mL (≈ 4.25 µM); in [8], 4 µg/mL (≈ 2.12 µM). For the same molecule, the MIC in experiment [9] is listed as 4 µg/mL (≈ 2.12 µM); in experiment [10], 8 µg/mL (≈ 4.25 µM); in experiment [11], 8 µg/mL (≈ 4.25 µM); in [12], 4 µg/mL (≈ 2.12 µM); in [14], 4 µg/mL (≈ 2.12 µM); in experiment [15] it was 4 µg/mL (≈ 2.12 µM). Besides, the “in vitro anti-bacterial activity” value in [13] is on record as “most active”. Besides, the “MIC values against all C. acnes isolates” value in [13] was in the range of 2 to 8 µg/mL.

The values are drawn from publication PMC7168327, “Designed Antimicrobial Peptides for Topical Treatment of Antibiotic Resistant Acne Vulgaris” (Antibiotics, 2020).
